Some test systems named below: HT29 colon; A498 renal; COLO 205 colon; CAKI-1 renal; K-562 leukemia; MALME-3M melanoma.
Holding throughout (assay): NCI anticancer screen, dose series, 48 h

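Growth conditions: 96-well plates. Treatment: test compound, 48 hours, 5 concentrations. Analysis: linear interpolation between bracketing concentrations; unreached endpoints set to highest concentration. Definition used: TGI = concentration required for complete inhibition of growth.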 *1 amine or outer side, *2 acyl side, *3 side chain or, on linkers, in order; H or OH if unused. Where a SMILES comes first, the peptide text is derived from it. Bridges are numbered along the chain shown (N, C = ends). [ ]: non-standard residue; d: D form. The star is where a group is joined. X34 = O=C(C(CCCCNO[*:3])N[*:1])[*:2]; Fmoc = O=C(OCC1c2ccccc2-c2ccccc21)* Where only a bound is given, the exact number is not on record here.

Consider `CCCCCCCCCCCCCCCCOP(=O)(O)OCC(NC(C)=O)C(=O)O` (stereo not drawn), for which the TGI with HT29 colon, with A498 renal, in the assay with COLO 205 colon, with CAKI-1 renal, in the assay on K-562 leukemia and in the assay with MALME-3M melanoma was above 100 µM each time.

Regarding `CC(C)(C)OC(=O)NCCNCCNc1ccccc1`, the TGI in the assay with HT29 colon, in the assay with COLO 205 colon, in the assay on CAKI-1 renal, in the assay with K-562 leukemia and in the assay with MALME-3M melanoma was above 100 µM each time.

Turning to `C#Cc1cc(Br)c(OC(=O)C(C)(C)C)c(-c2cc(C#C)cc(Br)c2OC(=O)C(C)(C)C)c1`, the TGI in the assay with HT29 colon, in the assay with A498 renal, in the assay with COLO 205 colon, in the assay on CAKI-1 renal, in the assay with K-562 leukemia and in the assay with MALME-3M melanoma was above 100 µM in each case.

With `Cn1c2ccccc2c(=O)c2cccc(C(=O)NCC(=O)O)c21`, the TGI in the assay with HT29 colon, in the assay on COLO 205 colon, in the assay with K-562 leukemia and in the assay on MALME-3M melanoma was above 100 µM in each case.

Regarding `COc1nc2c(c(=O)n1C)N=C(c1ccccc1)[C@H](C(CC(=O)c1ccccc1)c1ccccc1)C(c1ccccc1)N2` (stereo partly drawn), the TGI in the assay with HT29 colon, in the assay with A498 renal, in the assay with COLO 205 colon, in the assay on CAKI-1 renal and with K-562 leukemia was above 100 µM throughout.

For the compound `CSC1=NNC(SC)=NN1`, the TGI with HT29 colon was 0.316 µM; with A498 renal, above 1 µM; in the assay on COLO 205 colon, 0.413 µM; in the assay on CAKI-1 renal, 0.311 µM; with K-562 leukemia, 0.308 µM; in the assay with MALME-3M melanoma, 0.289 µM.

With `CSc1nc2c(c(N3CCOCC3)n1)C(O)n1c(nc3ccccc31)S2` (stereo not drawn), the TGI in the assay on HT29 colon, in the assay on A498 renal, in the assay on CAKI-1 renal and with MALME-3M melanoma was above 100 µM each time.

Turning to `O=S(=O)(SC1=NCCN1)c1cccc2ccccc12`, the TGI with HT29 colon was above 100 µM; with A498 renal, 89.7 µM; in the assay with COLO 205 colon it was 34.4 µM; in the assay with CAKI-1 renal it was 59.9 µM; with K-562 leukemia, 63.5 µM; in the assay on MALME-3M melanoma it was above 100 µM.

Take `c1ccc(C(=NCCC2CNc3ccccc32)c2ccccc2)cc1` (stereo not drawn): the TGI in the assay with HT29 colon, in the assay with A498 renal, with COLO 205 colon, with CAKI-1 renal, in the assay on K-562 leukemia and in the assay on MALME-3M melanoma was above 100 µM throughout.

Regarding `O=C1NNC2NC(=O)C3(NN2C1=O)c1ccccc1-c1ccccc13` (stereo not drawn), the TGI in the assay on HT29 colon, in the assay with A498 renal, in the assay on COLO 205 colon, in the assay on CAKI-1 renal, in the assay on K-562 leukemia and in the assay on MALME-3M melanoma was above 100 µM each time.

As for `COC(=O)[C@H]1COC(=O)N1`, the TGI in the assay with HT29 colon, with A498 renal, in the assay with COLO 205 colon, in the assay on CAKI-1 renal, in the assay with K-562 leukemia and with MALME-3M melanoma was above 100 µM in each case.

In the case of `NC(=O)CNC(=O)C1CCCN1C(=O)C1CCCCNOC(=O)CCC(NC(=O)OCC2c3ccccc3-c3ccccc32)C(=O)NC(Cc2c[nH]c3ccccc23)C(=O)N1` (stereo not drawn) (Fmoc-EW[X34]PG-NH2; ester 1-3; configuration not given here), the TGI in the assay with HT29 colon, in the assay on COLO 205 colon, in the assay with K-562 leukemia and in the assay on MALME-3M melanoma was above 100 µM in each case.

As to `Cc1ccc(OCC2OC(n3cnc4c(Cl)nc(Cl)nc43)CC2Oc2ccc(C)cc2)cc1` (stereo not drawn), the TGI with HT29 colon was determined as 2.91 µM; in the assay on A498 renal, 44.8 µM; with COLO 205 colon, 3.73 µM; with CAKI-1 renal, 2.96 µM; in the assay on MALME-3M melanoma it was 5.13 µM.

For `O=c1[nH]c(=O)n(C2CC(O)C(CO)O2)c2nc3ccc4cc5ccccc5cc4c3nc12` (stereo not drawn), the TGI with HT29 colon, in the assay with A498 renal, in the assay on COLO 205 colon, in the assay on CAKI-1 renal, in the assay with K-562 leukemia and with MALME-3M melanoma was above 100 µM throughout.

In the case of `COc1cc(/C=C\c2nnc(/C=C\c3ccc(O)c(OC)c3)s2)ccc1O`, the TGI in the assay on HT29 colon is 23.4 µM; in the assay on A498 renal, 6.4 µM; in the assay on COLO 205 colon it was 41.4 µM; with CAKI-1 renal it was 44.2 µM; with K-562 leukemia, above 21.2 µM; with MALME-3M melanoma, 24 µM.

Regarding `O=C1OC(C2(O)OC(=O)c3ccccc32)c2ccccc21` (stereo not drawn), the TGI in the assay with HT29 colon, in the assay on A498 renal, with COLO 205 colon and with CAKI-1 renal was above 100 µM each time.

On to `O=C(NC(Cc1cnc[nH]1)C(=O)N1CCCC1)C1CCCC1` (stereo not drawn), for which the TGI in the assay with HT29 colon, in the assay on A498 renal, in the assay with COLO 205 colon, in the assay on CAKI-1 renal, in the assay on K-562 leukemia and with MALME-3M melanoma was above 100 µM throughout.

Consider `NC(=O)SCCC(N)C(=O)O` (stereo not drawn), for which the TGI with HT29 colon, in the assay with A498 renal, in the assay with COLO 205 colon, with CAKI-1 renal, in the assay with K-562 leukemia and with MALME-3M melanoma was above 100 µM each time.

Consider `CN(C)c1ccc(C2CC(c3ccc4ccccc4c3O)=NN2c2ccc([N+](=O)[O-])cc2[N+](=O)[O-])cc1` (stereo not drawn), for which the TGI with HT29 colon, in the assay on A498 renal, with COLO 205 colon, in the assay with CAKI-1 renal and in the assay with MALME-3M melanoma was above 100 µM throughout.

Regarding `Oc1c(Br)cc(/C=C/c2cccc(/C=C/c3cc(Br)c(O)c(Br)c3)n2)cc1Br`, the TGI in the assay with HT29 colon worked out at 25.1 µM; in the assay with A498 renal, 25 µM; in the assay on COLO 205 colon it was 32.1 µM; in the assay on CAKI-1 renal, 45.6 µM; in the assay with K-562 leukemia it was 23.7 µM.

On to `N=CN=CC(=S)O[C@@H]1C(=O)N2CCC[C@@]23CCCC[C@@H]13`, for which the TGI in the assay on HT29 colon, in the assay with A498 renal, with COLO 205 colon, in the assay on CAKI-1 renal, with K-562 leukemia and with MALME-3M melanoma was above 12.5 µM throughout.

Values taken from PubChem BioAssay (NCI).
